Assay results published in patent US20230263808A1 (UNIVERSITY OF FLORIDA RESEARCH FOUNDATION, INCORPORATED, priority 2020, published 2023).
Entries after “also recorded” stand apart in the source; their conditions may differ.

Experiments:
GILZ mRNA = test: GILZ gene expression; type: cell-based
C2C12 myotubes [1] = test: Insulin-induced protein synthesis (SUnSET, In-Cell Western) in C2C12 myotubes; type: cell-based, mouse; conditions: for effect on insulin-induced protein synthesis: differentiated myotubes, nutrient-deprived, insulin challenge
Method: (§1) A) C2C12 myotubes were assayed for chymotrypsin-like proteasomal activity. […] C) Quantitation of the ICW in panel B. D) ICW for surface expression of Glut4 on L6 myotubes. E) ICW for insulin-induced incorporation of puromycin into C2C12 myotube surface proteins. F-G) High-content imaging and analysis of C2C12 myoblasts stained with a Mitotracker dye. H) Assay reproducibility from screening 22 compounds on two separate occasions. The Pearson correlation coefficient, r, and its associated p-value is indicated.
(§2) C2C12 myocytes were used in all assays, except in the Glut4 translocation assay where L6 rat myocytes were used. ICW, In-Cell Western. Also see Methods.
(§3) To avoid such effects on myogenesis, we switched myoblasts to differentiation media, and then on day 4, added 10 μM cytarabine, a chemotherapy agent that kills dividing cells, and then adding GCs on day 6 or 7 and completing assays in day 8 (FIG. 8).
(§4) Physiologically, the effects of GCs on protein balance and Glut4 translocation vary in vivo depending upon the stressor. For example, GCs mediate atrophy in response to fasting but not exercise. […] To assess protein degradation, we measured chymotrypsin-like proteasomal activity (FIG. 2, A). The activating phosphorylation of AKT at Thr308 (pAKT) was measured using a LI-COR In-Cell Western assay (FIG. 2, B and C). The rate-limiting step in insulin-mediated glucose uptake is the translocation of the glucose transporter, Glut4, to the surface membrane, which we also measured by In-Cell Western without permeabilizing the myotubes (FIG. 2, D). Surface Sensing of Translation (SUnSET) (Schmidt et al., Nat Methods 6, 275-277, 2009) assay was used to measure protein synthesis by In-Cell Western, following treatment of myotubes with a low dose of puromycin, which incorporates into translating proteins, but at a low enough level to provide a readout for global protein synthesis (FIG. 2, E). Lastly, we developed a high-content imaging assay in myoblasts stained with a MitoTracker dye, so that individual mitochondrial networks could be visualized with adequate resolution to quantitate area, segmentation, branching, and fluorescence intensity which is a measure of mitochondrial membrane potential (ψm).

C2C12 myotubes [2] = test: Protein degradation: chymotrypsin-like proteasomal activity in C2C12 myotubes; type: cell-based, mouse
Method: as §1, §2, §3
as §4, with “Lastly, we developed a high-content imaging assay in myoblasts stained with a MitoTracker dye, so that individual mitochondrial networks could be visualized with adequate resolution to quantitate area, segmentation, branching, and fluorescence intensity which is a measure of mitochondrial membrane potential (ψm).” left out

C2C12 myoblasts = test: Mitochondrial potential, high-content imaging with MitoTracker dye; type: cell-based, mouse
Method: as §1
A) Each dot represents the effects of a compound in the indicated assays at 10 uM. N=4-6 from two different experiments. […] C) SR11466 is efficacious at inhibiting IL-6 secretion from A549 cells. C-E). […] D) Mitochondrial activity was measured in myoblasts using high content imaging with mitotracker dye after 24 treatment. New amino acid incorporation was measured with LICOR in cell western for puromycin (SunSet assay). E) top, MMTV-luciferase reporter data. N=3, mean+SEM. Bottom, Mineralization of primary human OBs was assayed after two weeks of differentiation from MSC and two weeks of mineralization. N=4, mean+SEM, 2-way ANOVA.
as §4

LPS-induced TNFα = test: LPS-induced plasma TNFα levels in mice; type: in vivo, C57BL/6 male mice; conditions: mice pretreated with ligand
Source text: (§5) A) Correlation of correlation (COC) plots where each point represents the Pearson correlation coefficient, r, between a distinct gene expression or GR-peptide interaction assay with assays indicated on the x and y axes. B) The effects of all tested compounds on IL-1β-induced secretion of IL-6 (y axes) and GC-regulated phenotypes indicated on the x axes. C) The effects of all tested compounds on IL-1β-induced secretion of IL-6 (y axis) and bone mineralization (x axis). D) IL-1β-induced IL-6 production by A549 cells treated with 10 μM of the indicated compounds was compared by AlphaLISA. E-H) Myoblasts were assayed as described in FIG. 8. I) Representative myoblasts imaged during the mitochondrial potential assay. J) Plasma TNFα levels of C57BL/6 male mice treated pretreated with the indicated ligands. K) Changes in lean mass of mice in panel J were determined by whole-body NMR after an additional 18 h LPS treatment. Data shown are mean+SEM.

[3] = Loss of lean mass after a larger dose of LPS (whole-body NMR); type: in vivo, C57BL/6 male mice; conditions: additional 18 h LPS treatment
Source text: as §5

[4] = Body weight change after an overnight fast; type: in vivo, C57BL/6 male mice; conditions: 10 mg/kg Dex or SR16024, 50 mg/kg SR11466, single dose
Source text: (§6) A) The effects of all tested compounds on IL-1β-induced IL-6 production (x-axes) versus GR interaction with the indicated peptides. B-C) The effects of all tested compounds on the indicated GC-regulated phenotypes (x-axes) versus GR interaction with the CHD9_1023 and CENPR_1 peptides (y-axes). D-F) COC plots. Each point represents the Pearson correlation coefficient, r, between a distinct gene expression or GR-peptide interaction assay with assays indicated on the x and y axes. G) The effects of all tested compounds on IL-1β-induced IL-6 production (y-axes) versus insulin-induced protein synthesis. […] IL-β-induced IL-6 production by A549 cells treated with the indicated compounds was compared by AlphaLISA. […] Mice in panel K were subjected to a lactate-tolerance test (LTT).
(§7) We were also interested in whether the compounds would show dissociation between Glut4 translocation in skeletal muscle and gluconeogenesis in the liver, but enhanced glucose production is typically studied after weeks or months of GC treatment. However, we reasoned that an overnight fast should enable detection of effects after a single dose. […] Thus, profiling effects of GCs in the physiological context of nutrient deprivation allowed the discovery of two new types of glucocorticoids with improved profiles in skeletal muscle.

[5] = Lactate-tolerance test (rate of glucose production); type: in vivo, C57BL/6 male mice; conditions: after overnight fast; 10 mg/kg Dex or SR16024, 50 mg/kg SR11466
Source text: as §6, §7

[6] = Pharmacokinetics for in vivo dosing
[7] = tested on: IL-1β-induced IL-6 secretion by A549 lung cells; test: IL-1β-induced IL-6 secretion by A549 lung cells (AlphaLISA); type: cell-based
L6 myotubes = test: Glut4 translocation to the myotube surface (In-Cell Western); type: cell-based, rat
Method: as §1, §2, §4

CC#CC1(O)CCC2C3CCc4cc(C(=O)Nc5cccnc5C)ccc4C3C(OCc3ccc(Cl)cc3)CC21C (centres unmarked) [SR16025]
GILZ gene expression (GILZ mRNA): not activating GILZ

C=CCOC1CC2(C)C(CCC2(O)C#CC)C2CCc3cc(C(=O)Nc4cccnc4C)ccc3C12 (centres unmarked) [SR11466]
effect on insulin-induced protein synthesis (C2C12 myotubes [1]): slightly anabolic | effect on protein degradation (proteasomal) (C2C12 myotubes [2]): no effect | effect on mitochondrial activity / potential (C2C12 myoblasts): enhanced | LPS-induced TNFα levels in the blood (LPS-induced TNFα): strongly suppressed | loss of lean mass following a larger dose of LPS [3]: significantly better than Dex | preserving body mass after overnight fast [4]: significantly better than Dex | rate of glucose production in lactate tolerance test [5]: increased the rate of glucose production | pharmacokinetics for in vivo dosing [6]: favorable pharmacokinetics | inhibition of IL-6 production in combination with RU486 ([7]; A549 cells, with RU486): reversed by RU486 | IC50 ([7]; A549 lung cells, read-out: potency for inhibiting IL-1β-induced IL-6 secretion): 4 nM

CC#CC1(O)CCC2C3CCc4cc(C(=O)Nc5cccnc5C)ccc4C3C(OCc3ccccc3Cl)CC21C (centres unmarked) [SR16024]
anabolic effect on protein synthesis in combination with Dex (C2C12 myotubes [1]; C2C12 myotubes, with Dex): right-shift in the dose curve; also recorded: Dex inhibits | effect on insulin-induced protein synthesis (C2C12 myotubes [1]): doubling; also recorded: robustly stimulated protein synthesis | effect on Glut4 translocation (L6 myotubes): no inhibition | effect on mitochondrial activity / potential (C2C12 myoblasts): enhanced; also recorded: doubling; also recorded: anabolic profile in mitochondria | LPS-induced TNFα levels in the blood (LPS-induced TNFα): not inhibitory | loss of lean mass following a larger dose of LPS [3]: protective | preserving body mass after overnight fast [4]: slight weight sparing effect | GILZ gene expression (GILZ mRNA): not activating GILZ | pharmacokinetics for in vivo dosing [6]: favorable pharmacokinetics
